Test results reported in patent publication US20220125051A1, “PRE-HARVEST DESICCATION METHOD” (SYNGENTA CROP PROTECTION AG, priority 2019, published 2022).
Read-outs that look alike come from different tables or passages of the source.

Key:
Experiment in all cases: Post-emergence efficacy, Method A
Format in all cases: in vivo
[1] = system: Ipomoea hederacea (IPOHE); details: evaluated after 13 days; for pest or weed control at 500 g/ha: Ipomoea hederacea, post-emergence, 312 h
In short: (§1)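 Plants raised 14 days from seed in standard soil in a glasshouse (24/16 °C day/night, 14 h light, 65% humidity) were sprayed with compound dissolved in acetone plus IF50 solvent/emulsifier (50 g/l solution), diluted with 0.25% or 1% Empicol ESC70 + 1% ammonium sulphate. Damage was scored visually after 13 days (0 = none, 100 = total).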

[2] = system: Digitaria sanguinalis (DIGSA); details: evaluated after 13 days; for pest or weed control at 500 g/ha: Digitaria sanguinalis, post-emergence, 312 h
In short: as §1

[3] = system: Echinochloa crus-galli (ECHCG); details: evaluated after 13 days; for pest or weed control at 500 g/ha: Echinochloa crus-galli, post-emergence, 312 h
In short: as §1

Setaria faberi (SETFA) = details: evaluated after 13 days; for pest or weed control at 500 g/ha: Setaria faberi, post-emergence, 312 h
In short: as §1

[4] = system: Chenopodium album (CHEAL); details: evaluated after 13 days; for pest or weed control at 500 g/ha: Chenopodium album, post-emergence, 312 h
In short: as §1

Eleusine indica (ELEIN) = details: evaluated after 13 days; for pest or weed control at 500 g/ha: Eleusine indica, post-emergence, 312 h
In short: as §1

[5] = system: Euphorbia heterophylla (EPHHL); details: evaluated after 13 days; for pest or weed control at 500 g/ha: Euphorbia heterophylla, post-emergence, 312 h
In short: as §1

Lolium perenne (LOLPE) = details: evaluated after 13 days; for pest or weed control at 500 g/ha: Lolium perenne, post-emergence, 312 h
In short: as §1

[6] = system: Amaranthus palmeri (AMAPA); details: evaluated after 13 days; for pest or weed control at 500 g/ha: Amaranthus palmeri, post-emergence, 312 h
In short: as §1

[7] = Application rate 500 g/Ha, 100=total damage to plant, 0=no damage to plant, read-out: Control of weed species after post-emergence application, IPOHE
[8] = Application rate 500 g/Ha, 100=total damage to plant, 0=no damage to plant, read-out: Control of weed species after post-emergence application, DIGSA
[9] = Application rate 500 g/Ha, 100=total damage to plant, 0=no damage to plant, read-out: Control of weed species after post-emergence application, ECHCG
[10] = Application rate 500 g/Ha, 100=total damage to plant, 0=no damage to plant, read-out: Control of weed species after post-emergence application, SETFA
[11] = Application rate 500 g/Ha, 100=total damage to plant, 0=no damage to plant, read-out: Control of weed species after post-emergence application, CHEAL
[12] = Application rate 500 g/Ha, 100=total damage to plant, 0=no damage to plant, read-out: Control of weed species after post-emergence application, ELEIN
[13] = Application rate 500 g/Ha, 100=total damage to plant, 0=no damage to plant, read-out: Control of weed species after post-emergence application, EPHHL
[14] = Application rate 500 g/Ha, 100=total damage to plant, 0=no damage to plant, read-out: Control of weed species after post-emergence application, LOLPE
[15] = Application rate 500 g/Ha, 100=total damage to plant, 0=no damage to plant, read-out: Control of weed species after post-emergence application, AMAPA
[16] = Application Rate 500 g/Ha, Method A, read-out: Control of weed species after post-emergence application, IPOHE (100=total damage to plant; 0=no damage to plant)
[17] = Application Rate 500 g/Ha, Method A, read-out: Control of weed species after post-emergence application, DIGSA (100=total damage to plant; 0=no damage to plant)
[18] = Application Rate 500 g/Ha, Method A, read-out: Control of weed species after post-emergence application, ECHCG (100=total damage to plant; 0=no damage to plant)
[19] = Application Rate 500 g/Ha, Method A, read-out: Control of weed species after post-emergence application, SETFA (100=total damage to plant; 0=no damage to plant)
[20] = Application Rate 500 g/Ha, Method A, read-out: Control of weed species after post-emergence application, CHEAL (100=total damage to plant; 0=no damage to plant)
[21] = Application Rate 500 g/Ha, Method A, read-out: Control of weed species after post-emergence application, ELEIN (100=total damage to plant; 0=no damage to plant)
[22] = Application Rate 500 g/Ha, Method A, read-out: Control of weed species after post-emergence application, EPHHL (100=total damage to plant; 0=no damage to plant)
[23] = Application Rate 500 g/Ha, Method A, read-out: Control of weed species after post-emergence application, LOLPE (100=total damage to plant; 0=no damage to plant)
[24] = Application Rate 500 g/Ha, Method A, read-out: Control of weed species after post-emergence application, AMAPA (100=total damage to plant; 0=no damage to plant)
[25] = Application rate 500 g/Ha, 100=total damage to plant, 0=no damage to plant
[26] = Application Rate 500 g/Ha, Method A

Row | Compound | pest or weed control at 500 g/ha [1, 7] | pest or weed control at 500 g/ha [2, 8] | pest or weed control at 500 g/ha [3, 9] | pest or weed control at 500 g/ha (Setaria faberi (SETFA); [10]) | pest or weed control at 500 g/ha [4, 11] | pest or weed control at 500 g/ha (Eleusine indica (ELEIN); [12]) | pest or weed control at 500 g/ha [5, 13] | pest or weed control at 500 g/ha (Lolium perenne (LOLPE); [14]) | pest or weed control at 500 g/ha [6, 15] | also measured
1 | Nc1cnc(-c2cc[n+](CCC(=O)[O-])nc2)nc1 [Compound A44] | 20% | 40% | 30% | 60% | 10% | 20% | 20% | 20% | 40% | 
2 | O=C(O)CC[n+]1ccc(-c2ncccc2Cl)cn1 [Compound A149] | 10% | 50% | 50% | 40% | 40% | 60% | 30% | 40% | 30% | 
3 | Cc1ccnc(-c2cc[n+](CCS(=O)(=O)[O-])nc2)n1 [Compound A21] | 40% | 90% | 60% | 90% | 80% | 100% | 80% | 80% | 100% | 
4 | O=C([O-])CC[n+]1ccc(-c2cccc(C(F)(F)F)n2)cn1 [Compound A73] | 30% | 30% | 60% | 60% | 30% | 60% | 60% | 40% | 40% | 
5 | O=S(=O)([O-])OCCC[n+]1ccc(-c2ncccn2)cn1 [Compound A216] |  |  |  |  |  |  |  |  |  | pest or weed control at 500 g/ha [1, 16]: 60%; pest or weed control at 500 g/ha [2, 17]: 100%; pest or weed control at 500 g/ha [3, 18]: 70%; pest or weed control at 500 g/ha (Setaria faberi (SETFA); [19]): 90%; pest or weed control at 500 g/ha [4, 20]: 90%; pest or weed control at 500 g/ha (Eleusine indica (ELEIN); [21]): 100%; pest or weed control at 500 g/ha [5, 22]: 100%; pest or weed control at 500 g/ha (Lolium perenne (LOLPE); [23]): 70%; pest or weed control at 500 g/ha [6, 24]: 100%
6 | O=S(=O)([O-])CCCC[n+]1ccc(-c2ncccn2)cn1 [Compound A215] |  |  |  |  |  |  |  |  |  | pest or weed control at 500 g/ha [1, 16]: 60%; pest or weed control at 500 g/ha [2, 17]: 60%; pest or weed control at 500 g/ha [3, 18]: 30%; pest or weed control at 500 g/ha (Setaria faberi (SETFA); [19]): 20%; pest or weed control at 500 g/ha [4, 20]: 60%; pest or weed control at 500 g/ha (Eleusine indica (ELEIN); [21]): 30%; pest or weed control at 500 g/ha [5, 22]: 90%; pest or weed control at 500 g/ha (Lolium perenne (LOLPE); [23]): 20%; pest or weed control at 500 g/ha [6, 24]: 100%
7 | O=S(=O)([O-])CC[n+]1ccc(-c2ccnc(C(F)(F)F)n2)cn1 [Compound A108] | 70% | 50% | 40% | 60% | 80% | 60% | 80% | 40% | 40% | 
8 | COc1cc(C)nc(-c2cc[n+](CCS(=O)(=O)O)nc2)n1 [Compound A94] |  |  |  |  |  |  |  |  |  | Control of weed species after post-emergence application, IPOHE [1, 25]: 30; Control of weed species after post-emergence application, DIGSA [2, 25]: 30; Control of weed species after post-emergence application, ECHCG [3, 25]: 30; Control of weed species after post-emergence application, SETFA (Setaria faberi (SETFA); [25]): 40; Control of weed species after post-emergence application, CHEAL [4, 25]: 90; Control of weed species after post-emergence application, ELEIN (Eleusine indica (ELEIN); [25]): 20; Control of weed species after post-emergence application, EPHHL [5, 25]: 40; Control of weed species after post-emergence application, LOLPE (Lolium perenne (LOLPE); [25]): 20; Control of weed species after post-emergence application, AMAPA [6, 25]: 70
9 | CCOC(=O)CC[n+]1ccc(-c2ccccn2)cn1 [Compound A91] | 20% | 50% | 60% | 60% | 20% | 60% | 40% | 20% | 40% | 
10 | COP(=O)(C[n+]1ccc(-c2ccncn2)cn1)OC.O=S(=O)([O-])C(F)(F)F [Compound A237] |  |  |  |  |  |  |  |  |  | Control of weed species after post-emergence application, IPOHE (100=total damage to plant; 0=no damage to plant) [1, 26]: 50; Control of weed species after post-emergence application, DIGSA (100=total damage to plant; 0=no damage to plant) [2, 26]: 50; Control of weed species after post-emergence application, ECHCG (100=total damage to plant; 0=no damage to plant) [3, 26]: 10; Control of weed species after post-emergence application, SETFA (100=total damage to plant; 0=no damage to plant) (Setaria faberi (SETFA); [26]): 20; Control of weed species after post-emergence application, CHEAL (100=total damage to plant; 0=no damage to plant) [4, 26]: 10; Control of weed species after post-emergence application, ELEIN (100=total damage to plant; 0=no damage to plant) (Eleusine indica (ELEIN); [26]): 70; Control of weed species after post-emergence application, EPHHL (100=total damage to plant; 0=no damage to plant) [5, 26]: 0; Control of weed species after post-emergence application, LOLPE (100=total damage to plant; 0=no damage to plant) (Lolium perenne (LOLPE); [26]): 10; Control of weed species after post-emergence application, AMAPA (100=total damage to plant; 0=no damage to plant) [6, 26]: 60
11 | Cc1cnc(-c2cc[n+](CCC(=O)O)nc2)c(C)c1 [Compound A177] |  |  |  |  |  |  |  |  |  | pest or weed control at 500 g/ha [1, 16]: 20%; pest or weed control at 500 g/ha [2, 17]: 10%; pest or weed control at 500 g/ha [3, 18]: 0%; pest or weed control at 500 g/ha (Setaria faberi (SETFA); [19]): 0%; pest or weed control at 500 g/ha [4, 20]: 50%; pest or weed control at 500 g/ha (Eleusine indica (ELEIN); [21]): 10%; pest or weed control at 500 g/ha [5, 22]: 30%; pest or weed control at 500 g/ha (Lolium perenne (LOLPE); [23]): 0%; pest or weed control at 500 g/ha [6, 24]: 60%
12 | Cc1cc(F)cnc1-c1cc[n+](CCS(=O)(=O)[O-])nc1 [Compound A104] | 30% | 30% | 30% | 30% | 0% | 50% | 20% | 10% | 10% | 
13 | O=C(O)CC[n+]1ccc(-c2nccc(=O)[nH]2)cn1 [Compound A127] | 10% | 80% | 40% | 30% | 20% | 20% | 20% | 10% | 10% | 
14 | O=S(=O)([O-])CC[n+]1ccc(-c2ncc(CO)cn2)cn1 [Compound A170] |  |  |  |  |  |  |  |  |  | pest or weed control at 500 g/ha [1, 16]: 40%; pest or weed control at 500 g/ha [2, 17]: 40%; pest or weed control at 500 g/ha [3, 18]: 80%; pest or weed control at 500 g/ha (Setaria faberi (SETFA); [19]): 80%; pest or weed control at 500 g/ha [4, 20]: 100%; pest or weed control at 500 g/ha (Eleusine indica (ELEIN); [21]): 40%; pest or weed control at 500 g/ha [5, 22]: 70%; pest or weed control at 500 g/ha (Lolium perenne (LOLPE); [23]): 50%; pest or weed control at 500 g/ha [6, 24]: 100%
